This assay deals with HIV-1 single-round infectious reporter virus. As to the kind of experiment: microbe, parasite or virus in culture. In kind it is cell-based. The following applies: Human immunodeficiency virus 1, HeLa-CD4/CCR5, 72 h, read-out: EC50 Group from Table 1. On the procedure:
• Virus production-Human embryonic Kidney cell line, 293, propagated in Dulbecco's Modified Eagle Medium (Life Technologies, Gaithersburg, Md.) containing 10% fetal Bovine serum (FBS, Sigma, St. Louis, Mo.). • Virus infection-Human epithelial cell line, HeLa, expressing the HIV-1 receptors CD4 and CCR5 was propagated in Dulbecco's Modified Eagle Medium (Life Technologies, Gaithersburg, Md.) containing 10% fetal Bovine serum (FBS, Sigma, St. Louis, Mo.) and supplemented with 0.2 mg/mL Geneticin (Life Technologies, Gaithersburg, Md.) and 0.4 mg/mL Zeocin (Invitrogen, Carlsbad, Calif.). Virus—Single-round infectious reporter virus was produced by co-transfecting human embryonic Kidney 293 cells with an HIV-1 envelope DNA expression vector and a proviral cDNA containing an envelope deletion mutation and the luciferase reporter gene inserted in place of HIV-1 nef sequences (Chen et al, Ref. 41). Transfections were performed using lipofectAMINE PLUS reagent as described by the manufacturer (Life Technologies, Gaithersburg, Md.). Experiment • 1. Compound was added to HeLa CD4 CCR5 cells plated in 96 well plates at a cell density of 1×10^3 cells per well in 100 μl Dulbecco's Modified Eagle Medium containing 10% fetal Bovine serum at a concentration of <20 μM. • 2. 100 μl of single-round infectious reporter virus in Dulbecco's Modified Eagle Medium was then added to the plated cells and compound at an approximate multiplicity of infection (MOI) of 0.01, resulting in a final volume of 200 μl per well and a final compound concentration of <10 μM. • 3. Samples were harvested 72 h after infection. • 4. Viral infection was monitored by measuring luciferase expression from viral DNA in the infected cells using a luciferase reporter gene assay kit (Roche Molecular Biochemicals, Indianapolis, Ind.). Infected cell supernatants were removed and 50 μl of Dulbecco's Modified Eagle Medium (without phenol red) and 50 μl of luciferase assay reagent reconstituted as described by the manufacturer (Roche Molecular Biochemicals, Indianapolis, Ind.) was added per well. Luciferase activity was then quantified by measuring luminescence using a Wallac microbeta scintillation counter. • 5. […] An EC50 provides a method for comparing the antiviral potency of the compounds of this invention. The effective concentration for fifty percent inhibition (EC50) was calculated with the Microsoft Excel Xlfit curve fitting software. For each compound, curves were generated from percent inhibition calculated at 10 different concentrations by using a four parameter logistic model (model 205). Table 1 is the key for the data in Table 2. Results

Each structure is given as a SMILES string.

Consider `O=C(NCC1CCN(C(=O)c2ccccc2)C1)C(=O)c1c[nH]c2cccc(F)c12` (centres unmarked) [Example 1, N-(1-Benzoyl-pyrrolidin-3-ylmethyl)-2-(4-fluoro-1H-indol-3-yl)-2-oxo-acetamide], for which the 50% effective concentration (EC50) (as a rule, the concentration needed to bring the measured effect to its halfway point) was below 1 µM.

Consider `CC(C)(C)OC(=O)NCC1CCN(C(=O)C(=O)c2c[nH]c3cccc(F)c23)C1` (centres unmarked) [Example 2, {1-[2-(4-Fluoro-1H-indol-3-yl)-2-oxo-acetyl]-pyrrolidin-3-ylmethyl}-carbamic acid tert-butyl ester], for which the EC50 is above 5 µM.

For `O=C(NCC1CCN(C(=O)C(=O)c2c[nH]c3cccc(F)c23)C1)c1ccccc1` (centres unmarked) [Example 3, N-{1-[2-(4-Fluoro-1H-indol-3-yl)-2-oxo-acetyl]-pyrrolidin-3-ylmethyl}-benzamide], the EC50 was below 1 µM.

As for `O=C(NCC1CCN(C(=O)C(=O)c2cn(C(=O)c3ccccc3)c3cccc(F)c23)C1)c1ccccc1` (centres unmarked) [Example 4, N-{1-[2-(1-Benzoyl-4-fluoro-1H-indol-3-yl)-2-oxo-acetyl]-pyrrolidin-3-ylmethyl}-benzamide], the EC50 is below 1 µM.

With `O=Cc1ccc(F)c2c(C(=O)C(=O)NCC3CCN(C(=O)c4ccccc4)C3)c[nH]c12` (centres unmarked) [Example 5, N-(1-Benzoyl-pyrrolidin-3-ylmethyl)-2-(4-fluoro-7-formyl-1H-indol-3-yl)-2-oxo-acetamide], the EC50 lay in the range of 1 to 5 µM.

For `O=C(NCC1CCN(C(=O)c2ccccc2)C1)C(=O)c1c[nH]c2ncccc12` (centres unmarked) [Example 6, N-(1-Benzoyl-pyrrolidin-3-ylmethyl)-2-oxo-2-(1H-pyrrolo[2,3-b]pyridin-3-yl)-acetamide], the EC50 was above 5 µM.

Consider `O=C(NCC1CCN(C(=O)c2ccccc2)C1)C(=O)c1c[nH]c2c(C(=O)O)ccc(F)c12` (centres unmarked) [Example 7], for which the concentration giving a half-maximal response (EC50) lay in the range of 1 to 5 µM.

Consider `CNC(=O)c1ccc(F)c2c(C(=O)C(=O)NCC3CCN(C(=O)c4ccccc4)C3)c[nH]c12` (centres unmarked) [Example 8], for which the 50% effective concentration (EC50) was below 1 µM.

For the compound `O=C(NC[C@@H]1CCN(C(=O)C(=O)c2c[nH]c3c(Br)ccc(F)c23)C1)c1ccccc1` [Example 9, N-{1-[2-(7-Bromo-4-fluoro-1H-indol-3-yl)-2-oxo-acetyl]-pyrrolidin-3-ylmethyl}-benzamide], the EC50 was below 1 µM.

As for `O=C(NC[C@H]1CCN(C(=O)C(=O)c2c[nH]c3c(Br)ccc(F)c23)C1)c1ccccc1` [Example 10, N-{1-[2-(7-Bromo-4-fluoro-1H-indol-3-yl)-2-oxo-acetyl]-pyrrolidin-3-ylmethyl}-benzamide], the 50% effective concentration (EC50) was below 1 µM.

For `O=C(NC[C@H]1CCN(C(=O)C(=O)c2c[nH]c3c(-c4cc[nH]n4)ccc(F)c23)C1)c1ccccc1` [Example 11, N-(1-{2-[4-Fluoro-7-(1H-pyrazol-3-yl)-1H-indol-3-yl]-2-oxo-acetyl}-pyrrolidin-3-ylmethyl)-benzamide], the concentration giving a half-maximal response (EC50) is below 1 µM.

As for `O=C(NC[C@@H]1CCN(C(=O)C(=O)c2c[nH]c3c(-c4cc[nH]n4)ccc(F)c23)C1)c1ccccc1` [Example 12, N-(1-{2-[4-Fluoro-7-(1H-pyrazol-3-yl)-1H-indol-3-yl]-2-oxo-acetyl}-pyrrolidin-3-ylmethyl)-benzamide], the EC50 is below 1 µM.

Turning to `O=C(NCC1CCCN1C(=O)C(=O)c1c[nH]c2ccccc12)c1ccccc1` (centres unmarked) [Example 13], the EC50 is below 1 µM.

Consider `CN(C(=O)c1c[nH]c2ccccc12)C1CCN(C(=O)c2ccccc2)C1` (centres unmarked) [Example 14, 1H-Indole-3-carboxylic acid (1-benzoyl-pyrrolidin-3-yl)-methyl-amide], for which the half-maximal effective concentration (EC50) is above 5 µM.

These data come from US7714019B2 (priority 2002, dated 2010).
